Test results from patent US20240277747A1, “Compounds for Treating Genetic Diseases” (Zikani Therapeutics, Inc., priority 2021, published 2024).

System: FRT cells expressing CFTR β-globin fusion proteins (W134X)
Assay: Nanoluc assay (NanoLuc luciferase W134X readthrough/NMD reporter)
Assay type: cell-based
Details: various amounts of compound
Method: FRT cells expressing CFTR β-globin fusion proteins (W134X) are cultured in Coon's F-12 Medium supplemented with 5% fetal bovine serum and 100 units/mL penicillin-streptomycin. Cells are kept in a humidified, 5% CO2 atmosphere at 37° C. Cells are transfected with 0.5 ug/mL of the described construct, and 48 hours later, the levels of luciferase are measured with the luciferase assay lit (Promega, USA), according to the manufacturer's instructions.
A NanoLuc luciferase reporter plasmid was developed to target the identification of both readthrough and NMD modulators by using the addition of a nonsense mutation (W134X) in the Nanoluc region to test for readthrough as well as upstream of a β-globin intron to test for NMD attenuation (Figure X). The G418 used in experiments was commercial G418-sulfate (Gibco, #10131-027).
FRT cells expressing CFTR β-globin fusion proteins (W134X) are cultured at 37° C. and 5% CO2 in BioChrom Coon's F-12 Medium (Cedar Lane Labs, #F0855) with 5% fetal bovine serum (Gibco, #26140-079), 1% penicillin-streptomycin (Gibco, #15140-122), L-glutamine (Gibco, #25030) and 200 μg/mL Zeocin (Life Technology, #R25005).
Cells are removed from −80° C. freezers, thawed, and pelleted at 1000 rpm for 5 min at room temperature. The cells are resuspended in FRT growth media. A multidrop reagent dispenser (Thermo Fisher Scientific, #22-387-053) is used to plate cells (25,000 cells/well, 50 μL/well) into 384-well assay plates (Corning, #3570BC). The plates are centrifuged at 500 rpm for 2 min at room temperature and incubated for 48 h at 37° C. and 5% CO2. before compound administration of 5 μL/well, to yield a final assay volume of 55 μL/well. The cells are incubated for 48 h at 37° C. and 5% CO2.
For the W134X screening, the medium is aspirated and replaced with 16 μL of Opti-MEM medium (Life Technology, #11058), without FBS, buffered with HEPES (Gibco, #15630-080). 4 μL of Nano-Glo Live Cell Reagent (Promega, #N2013) is added and luminescence was read using an integration time of 0.1-2 seconds.

In the case of `CCN1C[C@H](C)C[C@@](C)(OC)[C@H](O[C@@H]2O[C@H](C)C[C@H](N(C)C)[C@H]2O)[C@@H](C)C(=O)C(C)(C)C(=O)OC[C@H]1CC1CCN(C(=O)c2cccc(OC)c2)CC1` [Compound 101], the “Readthrough (luciferase activity), Panel 1” value (alone or in combination with 100 uM G418) is reported as “Readthrough was observed” and the “Readthrough (luciferase activity), Panel 2” value (alone or in combination with 100 uM G418 or 50 uM G418) is reported as “Readthrough was observed”.
